Assay results from patent US7276532B2, “Remedies for vesical hyperactivity” (Kyowa Hakko Kogyo Co., Ltd., priority 2001, dated 2007).

Experiments:
spinal cord-injured rats = experiment: Inhibitory activity on detrusor hyperreflexia (cystometry test); format: in vivo, rat; conditions: average ± standard error
Experimental: The experiment was carried out according to the method of Cheng, et al. [Brain Res., Vol. 678, pp. 40-48 (1995)].
Female SD rats of 8 to 10 weeks of age (supplied by Japan SLC) were used in the test. Five to seven animals of these rats were put in each metal cage and reared by allowing them to freely take commercially available chow and water, in an animal room at room temperature between 19 and 25° C. and humidity between 30 and 70% under illumination for 12 hours (from 7:00 a.m. to 7:00 p.m.) per day.
An operation of spinal cord injury was performed in the rats. Each animal was anesthetized with diethyl ether and the skin of the back side thoracic cord part was incised. A laminectomy at the 7th to 8th thoracic vertebrae level was performed. Then, the thoracic cord at the T7-T8 segments was macroscopically cut and a section of spinal cord (about 5 mm) was removed, and the wound cavity of the removed part was filled with oxidized regenerated cellulose for hemostasis. The incised part was sutured with a surgical silk. After the spinal cord injury operation, urine was expressed manually twice per day (at 8:00-9:00 and 18:00-19:00) for about 3 weeks until autonomic micturition developed. An antibiotic (ampicillin, Sigma. Chemical Co.) was intramuscularly administered to the animals at a dose of 150 mg/kg once to twice per day for about 2 weeks.
Four to five weeks after the spinal cord injury, the rats were subjected to bladder catheterization. Under diethyl ether anesthesia, the bladder was exposed by midline incision of the abdomen. […] The bladder catheter was fixed with a surgical silk ligature and indwelled. The other end of the catheter was exposed subcutaneously from the back of the neck, plugged and then fixed to the skin with a surgical thread.
Four to six days after the bladder catheterization, a cystometry test was performed. The rats were put in a Bollman cage (Natsume Seisakusho Co., Ltd.) and a three-way cock was connected to the bladder catheter, one end of the cock was connected to a pressure transducer (Nihon Kohden Corp.) and the other end was connected to a 50-mL syringe (Terumo Corp.) arranged to an infusion pump (Harvard Apparatus, Inc.) for physiological saline infusion. The intravesical pressure signal from the pressure transducer was amplified with a strain pressure amplifier (AP-601G, Nihon Kohden Corp.) connected thereto, and was recorded on a thermal array recorder (RTA-1200, Nihon Kohden Corp.) via a polygraph system (RMP-6008, Nihon Kohden Corp.) containing the above amplifier. Sixty to ninety minutes after the completion of the preparation for the measurement, a room temperature physiological saline was infused into the bladder at a flow rate of 10 mL/h for 30 minutes, the occurence of micturition contractions was confirmed. Thirty minutes later, the infusion of physiological saline was carried out again for 30 minutes, and the intravesical pressure was measured to be used as the pre-administration value. Each of Compounds 1 to 6 was suspended in a 0.5 w/v % aqueous solution of methylcellulose at a concentration of 1 mg/mL suspension. The suspension was further diluted with a 0.5 w/v % aqueous solution of methylcellulose to prepare a suspension or solution for the administration at the intended concentration, which was then orally administered to the animals at a volume of 1 mL/kg. The period of 1, 3 and 5 hours after the dosing was used as the measuring time after the administration of the solvent or a compound tested, and the intravesical infusion of a physiological saline was carried out during a duration of 15 minutes around each measuring time (i.e. from 45 to 75 minutes, from 165 to 195 minutes and from 285 to 315 minutes after the administration of the compound).
Micturition contraction was measured as an index of the voiding function and pre-micturition contraction was measured as an index of detrusor hyperreflexia. […]

[1] = test system: rats with bladder hypertrophy; experiment: Inhibitory activity on detrusor instability (cystometry test after partial urethral obstruction); format: in vivo, rat; conditions: average ± standard error
Experimental: The experiment was carried out according to the method of Malmgren, et al. [J. Urol., Vol. 142, pp. 1134-1138 (1989)].
Female SD rats of 8 to 10 weeks of age (supplied by Japan SLC) were used in the test. Five to seven animals of these rats were put in each metal cage and reared by allowing them to freely take commercially available chow and water, in an animal room at room temperature between 19 and 25° C. and humidity between 30 and 70% under illumination for 12 hours (7:00 a.m.-7:00 p.m.) per day.
The rats were subjected to operation of partial urethral obstruction. Each animal was anesthetized by intraperitoneal administration of 50 mg/kg pentobarbital sodium (Dainippon Pharmaceutical Co., Ltd.), and the midline incision of the skin and muscle was made in the lower abdomen. A polyethylene tube (PE-20, Nippon Becton Dickinson Co., Ltd.) was inserted into urethra from the urethral to the bladder neck. After the proximal urethra was peeled and double-ligated, the polyethylene tube was pulled out to cause partial urethral obstruction. The incised part was-sutured with a surgical silk thread. An antibiotic (ampicillin, Sigma Chemical Co.) was intramusclarly administered to the animals at a dose of 150 mg/kg.
Six weeks after the operation of the partial urethral obstruction, the rats with bladder hypertrophy were subjected to bladder catheterization. Under anesthesia with pentobarbital sodium, the bladder was exposed by midline incision of the abdomen. […] The bladder catheter was fixed with a surgical silk ligature and indwelled. The other end of the catheter was exposed subcutaneously from the back of the neck, plugged and then fixed to the skin with a surgical thread.
Four to six days after the bladder catheterization, a cystometry test was performed. The rats were put in a Bollman cage (Natsume Seisakusho Co., Ltd.) and a three-way cock was connected to the bladder catheter, one end of the cock was connected to a pressure transducer (Nihon Kohden Corp.) and the other end was connected to a 50-mL syringe (Terumo Corp.) arranged to an infusion pump (Harvard Apparatus, Inc.) for physiological saline infusion. The intravesical pressure signal from the pressure transducer was amplified with a strain pressure amplifier (AP-601G, Nihon Kohden Corp.) connected thereto, and was recorded on a thermal array recorder (RTA-1200, Nihon Kohden Corp.) via a polygraph system (RMP-6008, Nihon Kohden Corp.) containing the above amplifier. Sixty to ninety minutes after the completion of the preparation for the measurement, intravesical infusion of a room temperature physiological saline at a flow rate of 10 mL/h was started and continued until the completion of the test, and the occurrence of micturition contractions and pre-micturition contractions were confirmed. The chart for 30 minutes after 3 hours from the commencement of the saline infusion was used as the values before the drug administration. Each of Compounds 1 to 3 was suspended in a 0.5 w/v % aqueous solution of methylcellulose at a concentration of 1 mg/mL. The suspension was further diluted with a 0.5 w/v % aqueous solution of methylcellulose to prepare a suspension or solution for the administration at the intended concentration. This was then orally administered to the animals at a volume of 1 mL/kg. The period of 1, 3 and 5 hours after the dosing was used as the measuring time after the administration of the solvent or a compound tested, and a duration of 15 minutes around each measuring time (45 to 75 minutes, 165 to 195 minutes and 285 to 315 minutes after the administration of the compound) was used as the measuring period.
Micturition contraction was used as an index of the voiding function and pre-micturition contraction was measure as an index of detrusor instability. […]

Row | Structure (SMILES) | micturition contractions (relative value, before administration = 100) (spinal cord-injured rats; 1 mg/kg p.o., after 1 hr.) | pre-micturition contractions (relative value, before administration = 100) (spinal cord-injured rats; 1 mg/kg p.o., after 1 hr.) | micturition contractions (relative value, before administration = 100) (spinal cord-injured rats; 1 mg/kg p.o., after 3 hrs.) | pre-micturition contractions (relative value, before administration = 100) (spinal cord-injured rats; 1 mg/kg p.o., after 3 hrs.) | micturition contractions (relative value, before administration = 100) (spinal cord-injured rats; 1 mg/kg p.o., after 5 hrs.) | pre-micturition contractions (relative value, before administration = 100) (spinal cord-injured rats; 1 mg/kg p.o., after 5 hrs.) | further results
1 | CC(O)(C(=O)Nc1ccc(Cl)c2c1C(=O)c1sccc1CS2(=O)=O)C(F)(F)F (stereo not drawn) [Compound 6] | 96.8 ± 4.4% | 62.7 ± 9.3% | 109.4 ± 6.4% | 87.9 ± 16.9% | 113.9 ± 15.4% | 69.0 ± 11.8% | 
2 | CC(C)(C(=O)[O-])C(=O)Nc1cccc2c1C(=O)c1sccc1CS2(=O)=O.[Na+] [Compound 3] | 109.3 ± 5.7% | 66.2 ± 15.8% | 109.5 ± 8.2% | 65.3 ± 24.9% | 111.4 ± 5.6% | 52.3 ± 13.7% | micturition contractions (relative value, before administration = 100) ([1]; 10 mg/kg p.o., after 1 hr.): 96.8 ± 6.3%; pre-micturition contractions (relative value, before administration = 100) ([1]; 10 mg/kg p.o., after 1 hr.): 62.4 ± 7.1%; micturition contractions (relative value, before administration = 100) ([1]; 10 mg/kg p.o., after 3 hrs.): 95.7 ± 4.7%; pre-micturition contractions (relative value, before administration = 100) ([1]; 10 mg/kg p.o., after 3 hrs.): 49.1 ± 6.3%; micturition contractions (relative value, before administration = 100) ([1]; 10 mg/kg p.o., after 5 hrs.): 92.2 ± 4.6%; pre-micturition contractions (relative value, before administration = 100) ([1]; 10 mg/kg p.o., after 5 hrs.): 51.8 ± 3.5%
3 | C[C@](O)(C(=O)Nc1cccc2c1C(=O)c1sccc1CO2)C(F)(F)F [Compound 4] | 95.5 ± 8.2% | 58.6% | 106.2 ± 7.0% | 44.4% | 121.4 ± 9.5% | 42.6% | 
4 | COc1ccc2c(c1)CS(=O)(=O)c1cccc(NC(=O)C(C)(O)C(F)(F)F)c1C2=O (stereo not drawn) [Compound 2] |  |  |  |  |  |  | micturition contractions (relative value, before administration = 100) (spinal cord-injured rats; 3 mg/kg p.o., after 1 hr.): 94.9 ± 14.3%; pre-micturition contractions (relative value, before administration = 100) (spinal cord-injured rats; 3 mg/kg p.o., after 1 hr.): 55.1 ± 7.3%; micturition contractions (relative value, before administration = 100) (spinal cord-injured rats; 3 mg/kg p.o., after 3 hrs.): 93.6 ± 16.7%; pre-micturition contractions (relative value, before administration = 100) (spinal cord-injured rats; 3 mg/kg p.o., after 3 hrs.): 80.2 ± 23.6%; micturition contractions (relative value, before administration = 100) (spinal cord-injured rats; 3 mg/kg p.o., after 5 hrs.): 99.4 ± 9.0%; pre-micturition contractions (relative value, before administration = 100) (spinal cord-injured rats; 3 mg/kg p.o., after 5 hrs.): 66.8 ± 14.5%; micturition contractions (relative value, before administration = 100) ([1]; 3 mg/kg p.o., after 1 hr.): 104.5 ± 2.0%; pre-micturition contractions (relative value, before administration = 100) ([1]; 3 mg/kg p.o., after 1 hr.): 67.5 ± 7.9%; micturition contractions (relative value, before administration = 100) ([1]; 3 mg/kg p.o., after 3 hrs.): 101.9 ± 5.9%; pre-micturition contractions (relative value, before administration = 100) ([1]; 3 mg/kg p.o., after 3 hrs.): 66.9 ± 8.5%; micturition contractions (relative value, before administration = 100) ([1]; 3 mg/kg p.o., after 5 hrs.): 100.9 ± 5.5%; pre-micturition contractions (relative value, before administration = 100) ([1]; 3 mg/kg p.o., after 5 hrs.): 74.7 ± 7.6%
5 | CC(C)(C)C(=O)Nc1cccc2c1C(=O)c1sccc1CO2 [Compound 5] | 96.8 ± 4.4% | 86.2 ± 10.2% | 109.4 ± 6.4% | 57.3 ± 9.2% | 113.9 ± 15.4% | 44.8 ± 6.1% | 
